Reference: patent publication US20240324597A1, “Method For Spot-Treatment Application Against Weeds” (Monsanto Technology LLC, priority 2021, published 2024)

Experiments:
Assay type in all cases: in vivo
Soybeans (GLXMA) [1] = test: Crop injury after spray with crop rows covered by rain gutters, soybeans (Example 2, Table 6); settings: MSO + AMS
From the text: In a second set of trials Soybeans (GLXMA) were planted in a standard planting system with 30 in row spacing and grown until they reached a BBCH growth stage of 11-12 or roughly 12 cm average height.
Application was made using a CO2 pressurized backpack sprayer and a handheld 6 nozzle boom, operating at 2.5 bar. The application was made at damp soil conditions and a windspeed of 0-15 km/h. The crop rows were covered during the actual spray application using upside down metal rain gutters (10 cm×10 cm depth×width) covering the crop and the soil below of about 5 cm on either side from the crop row center. All treatments included 1.5 L of a methylated seed oil (MSO) and 2 Kg/ha Ammonium sulfate (AMS) salt source and were mixed into 1 L fraction of an equivalent to 200 L/ha spray solution.
(§1) […] The crop injury was rated were visually on a percentage scale in relation to the untreated control (100%=all plants dead; 50%=green plant biomass reduced by 50%, and 0%=no discernible difference=like control plot).

[2] = tested on: Pepper plants (Capsicum frutescens L., CPSFR); test: Crop injury after shielded spray around transplanted pepper plants (Example 3, Table 7)
From the text: In a third set of trials pepper plants (Capsicum frutescens L., CPSFR) were manually transplanted at a growth stage of BBCH 13 in a field and grown until they reached BBCH growth stage of 14 or roughly 10 cm average crop height.
Application was made using a compressed air sprayer and a handheld 1 nozzle spray lance. The nozzle was shielded by a spray shield to prevent unintended spray drift during application. The application was made at damp soil conditions and calm wind around each single pepper plant. The crop plants were shielded from spray drift during application and spray slurry reached only the soil and weed cover surrounding the pepper plants.
as §1

Soybeans (GLXMA) [3] = test: Crop injury after hooded band spot-spray between crop rows, soybeans (Example 1, Table 5); settings: 1440 g a.i./ha, MSO + AMS
From the text: Sunflower (HELAN), Corn (ZEAMD) and Soybeans (GLXMA) were planted in a standard planting system with 30 in row spacing and grown until they reached a BBCH growth stage of 16-18; 12-13 and 14, respectively.
Application was made using a CO2 pressurized backpack sprayer and a handheld two nozzle boom, operating at 2.75 bar. Each of the nozzles (TeeJet Extended Air Induction nozzle 0015) was equipped with a plastic hood covering a 38 cm band left and right of each crop row and preventing unintended spray drift outside the band. The spray solution covered a band of roughly 38 cm on either side of the crop row with an average distance 8 cm to the row center and 2-10 cm distance between soil surface and lower end of the spray shield. The application was made at damp soil conditions and a windspeed of 0-10 km/h. All treatments included 1.5 L of an methylated seed oil (MSO) and 2 Kg/ha Ammonium sulfate (AMS) salt source and were mixed into 1 L fraction of an equivalent to 187 L/ha spray solution.
The crop injury assessments were conducted as visual assessments at 15, 28 and 45 days after application (DAA) in case of Sunflower and soybeans and at 14 and 27 DAA in case of com. Also in case of Table 5 assessments were done in soybeans at 15, 25 and 44 DAA. The crop injury was rated were visually on a percentage scale in relation to the untreated control (100%=all plants dead; 50% =green plant biomass reduced by 50%, and 0%=no discernible difference=like control plot).

Measured: Crop injury [% untreated]

C=CC1(C(=O)NC2COC(C(=O)OC)C2)CC(c2cc(F)cc(F)c2)=NO1 (mixture of isomers) [A 1.68]
0 % untreated: Soybeans (GLXMA) [1]; 100 g a.i./ha, 7 DAA | Soybeans (GLXMA) [1]; 100 g a.i./ha, 15 DAA | Soybeans (GLXMA) [1]; 100 g a.i./ha, 28 DAA | Soybeans (GLXMA) [1]; 100 g a.i./ha, 45 DAA | Soybeans (GLXMA) [1]; 200 g a.i./ha, 7 DAA | Soybeans (GLXMA) [1]; 200 g a.i./ha, 15 DAA | Soybeans (GLXMA) [1]; 200 g a.i./ha, 28 DAA | Soybeans (GLXMA) [1]; 200 g a.i./ha, 45 DAA | [2]; 100 g a.i./ha, 5 DAA | [2]; 100 g a.i./ha, 7 DAA | [2]; 100 g a.i./ha, 14 DAA | [2]; 150 g a.i./ha, 5 DAA | [2]; 150 g a.i./ha, 7 DAA | [2]; 150 g a.i./ha, 14 DAA

O=C(O)CNCP(=O)(O)O [Glyphosate, glyphosate, reference compound]
0 % untreated: Soybeans (GLXMA) [3]; 15 DAA | Soybeans (GLXMA) [3]; 25 DAA | Soybeans (GLXMA) [3]; 44 DAA | Soybeans (GLXMA) [1]; 1440 g a.i./ha, 7 DAA | Soybeans (GLXMA) [1]; 1440 g a.i./ha, 15 DAA | Soybeans (GLXMA) [1]; 1440 g a.i./ha, 28 DAA | Soybeans (GLXMA) [1]; 1440 g a.i./ha, 45 DAA
